The text below walks through data of US20220062228A1, “USE OF CARNOSOL FOR INCREASING MUSCLE PROTEIN SYNTHESIS” (Centre National De La Recherche Scientifique, priority 2018, published 2022).

Structures can show the parent of a compound that is named as a salt.

One assay relates to human myotubes. Briefly: culture cell model of human skeletal muscle satellite cells: area of myotubes (troponin T immunofluorescence, Image J). In kind it is cell-based. The conditions noted are these: for hypertrophic activity on myotubes, carnosol compared with carnosic acid: 1 μg/ml and 5 μg/ml, FIG. 9; for hypertrophic activity on myotubes, comparison with antioxidant compounds: FIG. 8; for hypertrophic activity on myotubes (area of myotubes) / concentration from which hypertrophic activity is exhibited: myotubes from young human subjects; for hypertrophic activity on myotubes (area of myotubes): 5 μg/ml, FIG. 3; for concentration from which hypertrophic activity is exhibited: FIG. 4. From the text:
(§1) In order to assay the hypertrophic effect on muscle of compounds from vegetal extracts, the inventors have designed a culture cell model of human skeletal muscle satellite cells. The skeletal muscle satellite cells are able to proliferate and to differentiate ex vivo. When cultured in a growth factors rich medium, the skeletal muscle satellite cells proliferate in the form of myoblasts. At confluence, the myoblasts morphologically differentiate by fusing thereby producing long multinucleated cells (myotubes or myofibers) which express muscular protein. Myotubes are able to respond to hypertrophic and atrophic signals by modulating the balance between the protein synthesis (hypertrophy) or the protein degradation (atrophy) (El Haddad M. et al., Cell Mol Life Sci. 2017 May; 74(10):1923-1936).
The recovered skeletal muscle satellite cells used in the culture cell model by the inventors were recovered from a muscular biopsy of young and elderly subjects.
The satellite cells can be easily recovered from a muscle biopsy and cultured ex vivo in dishes where they proliferate as myoblasts and differentiate into myotubes. The biopsy is treated according to an experimental protocol described and validated by us for human skeletal muscle from quadriceps (Kitzmann et al., 2006; El Haddad et al 2017). The biopsy is cut into a fragment of 1 mm^3 and placed in a culture dish treated with type 1 collagen. The explants are trapped inside in a thin layer of Matrigel (BD Matrigel Matrix, BD Biosciences) in 35 mm-collagen coated Petri dishes with growth media (DMEM/F12, supplemented with 10% fetal bovine serum, 0.1% Ultroser G, 1 ng/ml basic FGF, and 10 microg/mL gentamicin). After 6 to 8 days, when cells migrate out of the explants, they are enzymatically harvested using dispase (BD Biosciences) and subcultured in growth medium. Harvested cells are purified by immunomagnetic cell sorting using magnetic activated cell sorter (MACS) microbeads (MiltenyiBiotec) coupled to an antibody against CD56. Usually in protocols of muscle culture cells, muscle differentiation is induced by growing confluent myoblasts in differentiation medium depleted of growth factors. At confluence, myoblasts start to differentiate and differentiation can be evidenced 1) morphologically (after 2 to 4 days), as the fusion of myoblasts generates long giant multinucleated cells (named myotubes) and 2) biochemically, as myotubes express proteins required for muscle contraction. Differentiation is assessed by immunofluorescence using the antibodies against Troponin T and Myogenin, two markers of muscle differentiation. The differentiation status is also confirmed by precisely measuring the expression of three differentiation markers (Myogenin, Sarcomeric Actin and Caveolin by RT-qPCR). Expression of RPLP0 is also quantified as internal control.
Briefly, myoblasts are seeded at 10^5 cells/dish onto 35 mm collagen-coated dishes and cultured in growth medium (DMEM/F12, supplemented with 10% fetal bovine serum, 0.1% Ultroser G, 1 ng/ml basic FGF, and 10 microg/ml gentamicin). Myogenic differentiation of confluent cells was induced after 3 days by changing to DMEM containing 5% FBS (differentiation medium). Cells were kept in differentiation medium for 3 to 4 days.
Then the cells are fixed and the expression of troponin T (a protein of the cytoskeleton which is exclusively expressed by myotubes) is analysed by immuno-fluorescence. Then the area of myotubes is measured using the Image J software. If the area increases the compound has a hypertrophic activity and if the area decreases the compound has an atrophic activity.
The skeletal muscle satellite cells came from young people (aged under 30).

In a further assay the test system is MuRF1. Briefly: western blot of MuRF1 in myotubes / skeletal muscle cells. In kind it is cell-based, human. An excerpt:
The muscle protein degradation may be measured by assaying the level of expression of an ubiquitin ligases such as muscle RING-finger protein-1 (MuRF1).

The next assay relates to NRF2 pathway. Briefly: induction of the NRF2 pathway (NRF2, HO-1) in skeletal muscle cells. To be noted: for NRF2 accumulation / full activation of NRF2 pathway by inducing HO-1: skeletal muscle, 6 μM. The format is cell-based. An excerpt: The regulation of Nrf2 signaling is believed to preserve redox homeostasis and protect the structure and function of skeletal muscle. Nrf2 is a transcription factor, inactivated by Keap-1 in the cytoplasm. Upon activation, Keap1 is degraded, and NRF2 mediates intracellular antioxidant response by binding to the antioxidant response element (ARE) in the promoter of its target genes and induces the expression of a set of antioxidant enzymes, called ‘phase 2 enzymes,’ including heme oxygenase-1 (HO-1). Recently it has been shown that Nrf2 deficiency caused accelerated aging and muscle loss during aging.
Since carnosic acid and carnosol are antioxidants molecules and can activate the NRF2 pathway in several type of cells, it was studied whether carnosic acid and carnosol are capable of inducing NRF2 pathway in skeletal muscle.
In order to know whether NRF2 pathway activation is sufficient to activate hypertrophy in skeletal muscle cells. An assay with DMF (dimethyl Fumarate) has been carried out. Given DMF is a NRF2 activator, if the NRF2 pathway activation is sufficient to activate hypertrophy in skeletal muscle cells then DMF should induce myotube hypertrophy.

Assay [1] deals with myotube cells from elderly subject. Kind of assay: culture cell model with skeletal muscle satellite cells recovered from elderly subjects: area of myotubes. The conditions noted are these: elderly subjects 1 and 2; carnosol 2 μg/ml; FIG. 5. In kind it is cell-based, human.
Source text: as §1, with “74(10):1923-1936). […]” for “74(10):1923-1936).”
The satellite cells can be easily recovered from a muscle biopsy and cultured ex vivo in dishes where they proliferate as myoblasts and differentiate into myotubes. […] Differentiation is assessed by immunofluorescence using the antibodies against Troponin T and Myogenin, two markers of muscle differentiation. […] Expression of RPLP0 is also quantified as internal control. […]
Then the cells are fixed and the expression of troponin T (a protein of the cytoskeleton which is exclusively expressed by myotubes) is analysed by immuno-fluorescence. Then the area of myotubes is measured using the Image J software. […]

The subject of the next assay is gastrocnemius muscle. Briefly: fibre areas (CSA) of gastrocnemius muscle sections, anti-dystrophin staining, Myovision. In kind it is in vivo. The conditions noted are these: adult C57 BL6 J mice, daily oral dose of 80 mg/Kg for 12 days; FIG. 6. How it is done:
(§2) Hypertrophic Activity of Carnosol In Vivo To investigate whether carnosol can alter skeletal muscle physiology, adult mice (13 weeks old, C57 BL6 J) were treated for 12 days with a daily oral dose of 80 mg/Kg. […] The determination of the fibre areas (CSA) was made using the Myovision software.

The subject of another assay is MURF1 protein. Kind of assay: western blot analysis on muscle extract for MURF1 protein. The format is in vivo. The conditions noted are these: adult C57 BL6 J mice, daily oral dose of 80 mg/Kg for 12 days; FIG. 7. On the procedure: as §2
Then, a western blot analysis on muscle extract was performed to determine the impact of a carnosol treatment on MURF1 protein.
Background: A western blot detects proteins with antibodies after separation by electrophoresis.

The test system of assay [2] is protein synthesis in myotubes. Kind of assay: SUnSET puromycin incorporation western blot (protein synthesis) in the culture cell model. In kind it is cell-based, human. To be noted: myotubes stimulated with carnosol, puromycin 30 minutes before recovery; FIG. 13. On the procedure:
The synthesis of muscle protein may be measured in vitro by the method disclosed in Schmidt et al., SUnSET, a nonradioactive method to monitor protein synthesis, Nat Methods. 2009 April; 6(4):275-7. Muscle cells were treated with puromycin, 30 minutes before recovering the protein from the cells. Then, a western blot is carried out with anti-puromycin antibodies in order to show the translation rate of the mRNA in the living cells.
The muscular hypertrophic activity of carnosol may result from a global increase of the synthesis of proteins. To study this hypothesis, the culture cell model disclosed above was stimulated with carnosol. Then, 30 minutes before recovering the protein from the cells, the cells were treated with puromycin. The puromycin is incorporated in the neo-synthetized proteins. Then, a western blot was carried out with anti-puromycin antibodies in order to show the translation rate of the mRNA in the living cells (Schmidt et al., SUnSET, a nonradioactive method to monitor protein synthesis. Nat Methods. 2009; 6:275-277) (see FIG. 13).

The subject of the next assay is mTOR pathway. Kind of assay: western blot of signaling pathways controlling muscle hypertrophy in myotubes. In kind it is cell-based, human. To be noted: FIG. 14. From the text: Two main pathways control the regeneration of contractile proteins: • PI3K/Akt/mTOR which is the major pathway of muscle hypertrophy and • pathway of the transcription factors of FOXO family which controls the expression of the genes involved in the proteasome degradation systems and the autophagy (respectively atrogenes and genes of the autophagy).
At the molecular level, it has been established that the activation of the PI3K/Akt/mTOR pathway stimulates the protein synthesis through their anabolizing targets (mTOR, protein S6 kinase 1 (S6K) and the eIF4E-binding proteins (4E-BP) and blocks the ubiquitine E3 of the family of atrogenes MuRF1 and MAFbx mediated proteolysis pathway (FOXO) (Egerman and Glass, Signaling pathways controlling skeletal muscle mass. Crit Rev Biochem Mol Biol. 2014 January-February; 49(1):59-68).

For the compound `COC(=O)/C=C/C(=O)OC` [DMF, dimethyl Fumarate, reference compound], in the assay on human myotubes (50 μM, FIG. 15), the myotube hypertrophy result was “does not induce repression of MURF1 protein and myotube hypertrophy”. Besides, in the assay on MuRF1 (skeletal muscle cells, DMF treatment versus carnosol treatment), the “repression of MURF1 protein” value was “does not induce repression of MURF1 protein”. Moreover, in the assay on NRF2 pathway (skeletal muscle cells), the “dose from which the NRF2 pathway is induced” value is more than 20 µM; the “induction of the NRF2 pathway (NRF2 and HO-1)” value is given as “induces the NRF2 pathway”.

As for `CC(C)c1cc2c(c(O)c1O)[C@@]1(C(=O)O)CCCC(C)(C)[C@@H]1CC2` [carnosic acid, reference compound], in the assay on human myotubes, the “hypertrophic activity on myotubes, carnosol compared with carnosic acid” value is “the hypertrophic activity of carnosol is significantly higher than the one of carnosic acid”. Besides, the “hypertrophic activity on myotubes, comparison with antioxidant compounds” value in the assay with human myotubes (2 μg/ml) was “only carnosol has a significant hypertrophic activity”. In the assay on NRF2 pathway, the NRF2 accumulation result was “both induce NRF2 accumulation” and the “full activation of NRF2 pathway by inducing HO-1” value is recorded as “only carnosol fully activates NRF2 pathway by inducing HO-1”.

Take `CC(C)c1cc2c(c(O)c1O)[C@@]13CCCC(C)(C)[C@@H]1C[C@@H]2OC3=O` [carnosol, Carnosol]: in the assay with human myotubes, the “hypertrophic activity on myotubes, carnosol compared with carnosic acid” value is “the hypertrophic activity of carnosol is significantly higher than the one of carnosic acid”. Besides, in the assay with human myotubes (2 μg/ml), the “hypertrophic activity on myotubes, comparison with antioxidant compounds” value is on record as “only carnosol has a significant hypertrophic activity”. Also, the myotube hypertrophy result in the assay on human myotubes (human myotubes treated 48 hours, 1 μg/ml, FIGS. 10-12) is on record as “only carnosol treatment induced myotube hypertrophy”. In addition, in the assay on human myotubes (listed as commercially available carnosol), the “hypertrophic activity on myotubes (area of myotubes)” value is “same hypertrophic activity as the fraction C”. The “hypertrophic activity on myotubes (area of myotubes)” value in the assay with human myotubes (listed as fraction C) is “active compound was isolated in the fraction C”. In addition, the “concentration from which hypertrophic activity is exhibited” value in the assay with human myotubes (conversion of 0.5 μg/ml) was in the range of 1 to 2 µM. Besides, the “concentration from which hypertrophic activity is exhibited” value with human myotubes (tested 0.25-5 μg/ml) was not below 0.5 µg/mL. Besides, in assay [1], the “hypertrophic activity on myotube cells of elderly subjects” value was “has also a hypertrophic activity”. The “diameter of the fibers (fibre area, CSA) of the gastrocnemius” value in the assay with gastrocnemius muscle was “significantly increases the diameter of the fibers”. In addition, the “MURF1 protein level in gastrocnemius” value in the assay on MURF1 protein is “down-regulates MURF1 protein level”. The “synthesis of protein in muscle cells (puromycin incorporation)” value in assay [2] is reported as “stimulates the synthesis of protein in muscle cells”. Further, in the assay with mTOR pathway, the “phosphorylation rate of 4EBP1 (p-4EBP1/4EPB1)” value is given as “increasing the phosphorylation rate”, the “phosphorylation rate of P70 S6 kinase (p-S6K/S6K)” value is reported as “increasing the phosphorylation rate” and the “phosphorylation rate of PS6 (p-S6/S6)” value is recorded as “increasing the phosphorylation rate”. The “MuRF1 expression (degradation of proteins)” value with MuRF1 (myotubes, western blot, FIG. 14) is “inhibits strongly the MuRF1 expression”. In addition, in the assay with NRF2 pathway (skeletal muscle cells), the “dose from which the NRF2 pathway is induced” value is not below 3 µM. Further, in the assay on NRF2 pathway, the NRF2 accumulation result is “both induce NRF2 accumulation” and the “full activation of NRF2 pathway by inducing HO-1” value was “only carnosol fully activates NRF2 pathway by inducing HO-1”.

Regarding `CC(C)C[C@H](N)C(=O)O` [leucine, reference compound], the myotube hypertrophy entry with human myotubes (human myotubes treated 48 hours, 5 mM, FIG. 10) is “only carnosol treatment induced myotube hypertrophy”.

In the case of `O=C(/C=C/c1ccc(O)c(O)c1)O[C@H](Cc1ccc(O)c(O)c1)C(=O)O` [rosmarinic acid, reference compound], the “hypertrophic activity on myotubes, comparison with antioxidant compounds” value in the assay with human myotubes (2 μg/ml) is recorded as “only carnosol has a significant hypertrophic activity”.

As for `C[C@H]1[C@H](C)CC[C@]2(C(=O)O)CC[C@]3(C)C(=CC[C@@H]4[C@@]5(C)CC[C@H](O)C(C)(C)[C@@H]5CC[C@]43C)[C@H]12` [ursolic acid, reference compound], the “hypertrophic activity on myotubes, comparison with antioxidant compounds” value with human myotubes (2 μg/ml) was “only carnosol has a significant hypertrophic activity”.

For the compound `O=C1O[C@H]([C@@H](O)CO)C(O)=C1O` [vitamin C, ascorbic acid, reference compound], in the assay on human myotubes (50 μg/ml), the “hypertrophic activity on myotubes, comparison with antioxidant compounds” value was “only carnosol has a significant hypertrophic activity”.

For `CC(C)(O)CC(=O)O` [β-hydroxy-β-methylbutyrate, reference compound], the myotube hypertrophy entry with human myotubes (human myotubes treated 48 hours, 25 μM and 100 μM, FIG. 11) is recorded as “only carnosol treatment induced myotube hypertrophy”.

For the compound vitamin D [reference compound], in the assay with human myotubes (human myotubes treated 48 hours, 10^−7M, FIG. 12), the myotube hypertrophy entry was “Only carnosol induced myotube hypertrophy”.
